Drawing on patent US11168073B2, “3,3-difluoroallylamines or salts thereof and pharmaceutical compositions comprising the same” (YUHAN CORPORATION, priority 2018, dated 2021), this text covers IC50 for twelve molecules.

Structures are written as SMILES. Structures can show the parent of a compound that is named as a salt. Where two headings read alike, the source gives them in different places.

Assay type in all cases: biochemical
One experiment has as its target T1, recombinant human VAP-1 (Homo sapiens, UniProt Q16853).
T1 construct: purchased R&D systems
T1 sequence (Q16853 1-763): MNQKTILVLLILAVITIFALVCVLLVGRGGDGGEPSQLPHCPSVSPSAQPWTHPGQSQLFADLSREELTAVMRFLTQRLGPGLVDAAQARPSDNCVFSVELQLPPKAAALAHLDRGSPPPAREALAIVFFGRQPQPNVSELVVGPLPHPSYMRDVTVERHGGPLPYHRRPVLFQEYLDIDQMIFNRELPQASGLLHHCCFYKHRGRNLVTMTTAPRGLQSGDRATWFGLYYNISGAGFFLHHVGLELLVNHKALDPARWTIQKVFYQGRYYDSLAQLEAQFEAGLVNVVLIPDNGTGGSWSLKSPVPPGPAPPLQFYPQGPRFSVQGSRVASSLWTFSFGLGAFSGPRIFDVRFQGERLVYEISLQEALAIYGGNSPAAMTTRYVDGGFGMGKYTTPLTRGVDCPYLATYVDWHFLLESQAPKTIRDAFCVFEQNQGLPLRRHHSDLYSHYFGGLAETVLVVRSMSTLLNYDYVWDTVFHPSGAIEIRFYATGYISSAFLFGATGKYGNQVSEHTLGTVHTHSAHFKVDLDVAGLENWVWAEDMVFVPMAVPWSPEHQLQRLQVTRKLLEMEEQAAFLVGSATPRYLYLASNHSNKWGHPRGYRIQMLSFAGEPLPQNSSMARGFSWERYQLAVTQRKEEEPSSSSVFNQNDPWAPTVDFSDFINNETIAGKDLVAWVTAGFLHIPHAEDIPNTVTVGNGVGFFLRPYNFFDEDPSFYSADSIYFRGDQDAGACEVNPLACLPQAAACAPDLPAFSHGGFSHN
Kind of experiment: Activity evaluation on recombinant human VAP-1 (Amplex Red/HRP-coupled hydrogen peroxide assay, benzylamine substrate). The following applies: read-out: Inhibitory Activity (IC50, nM) human VAP-1. An outline of the steps:
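Hydrogen peroxide from benzylamine (1 mM) oxidation by human recombinant VAP-1 detected via HRP-coupled Amplex Red (200 uM) fluorescence, kinetic over 1–2 h. Enzyme and compound preincubated 30 min at 37 °C, pH 7.4 phosphate; 8-point dose response, signal-rate decrease versus DMSO control fitted to four-parameter logistic for IC50.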

In experiment [1] the target is T2, recombinant human MAO-A (monoamine oxidase-A) (Homo sapiens, UniProt P21397).
T2 construct: purchased Sigma-Aldrich
T2 sequence (P21397 1-527): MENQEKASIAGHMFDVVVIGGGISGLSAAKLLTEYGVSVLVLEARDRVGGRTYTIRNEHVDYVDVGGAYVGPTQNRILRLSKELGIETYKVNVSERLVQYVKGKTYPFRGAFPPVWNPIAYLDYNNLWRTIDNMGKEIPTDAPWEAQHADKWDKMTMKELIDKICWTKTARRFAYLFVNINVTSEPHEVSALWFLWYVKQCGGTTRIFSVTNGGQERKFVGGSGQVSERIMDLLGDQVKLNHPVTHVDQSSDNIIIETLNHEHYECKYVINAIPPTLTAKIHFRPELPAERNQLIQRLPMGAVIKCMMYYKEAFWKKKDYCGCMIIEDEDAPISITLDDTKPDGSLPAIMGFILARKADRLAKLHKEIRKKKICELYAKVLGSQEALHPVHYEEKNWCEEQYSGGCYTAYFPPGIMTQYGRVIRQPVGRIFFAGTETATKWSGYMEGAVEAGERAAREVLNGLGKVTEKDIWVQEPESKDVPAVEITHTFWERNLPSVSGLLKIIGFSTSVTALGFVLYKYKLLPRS
Kind of experiment: Activity evaluation on recombinant human MAO-A (Amplex Red/HRP-coupled assay, 0.5 mM tyramine substrate). The following applies: read-out: Inhibitory Activity (IC50, nM) MAO-A. An outline of the steps: (§1)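 8-pt 1:3 dilution series, final DMSO <1%; 30 min 37 °C preincubation w/ enzyme, 50 mM Na phosphate pH 7.4; + 200 uM Amplex Red, 1 U/mL HRP, substrate (MAO-A tyramine 0.5 mM; MAO-B benzylamine 1 mM; DAO putrescine 1 mM); fluor. rate 544/590 nm, 1-2 h; 4-param IC50.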

The target of experiment [2] is T3, recombinant human MAO-B (monoamine oxidase-B) (Homo sapiens, UniProt P27338).
T3 construct: purchased Sigma-Aldrich
T3 sequence (P27338 1-520): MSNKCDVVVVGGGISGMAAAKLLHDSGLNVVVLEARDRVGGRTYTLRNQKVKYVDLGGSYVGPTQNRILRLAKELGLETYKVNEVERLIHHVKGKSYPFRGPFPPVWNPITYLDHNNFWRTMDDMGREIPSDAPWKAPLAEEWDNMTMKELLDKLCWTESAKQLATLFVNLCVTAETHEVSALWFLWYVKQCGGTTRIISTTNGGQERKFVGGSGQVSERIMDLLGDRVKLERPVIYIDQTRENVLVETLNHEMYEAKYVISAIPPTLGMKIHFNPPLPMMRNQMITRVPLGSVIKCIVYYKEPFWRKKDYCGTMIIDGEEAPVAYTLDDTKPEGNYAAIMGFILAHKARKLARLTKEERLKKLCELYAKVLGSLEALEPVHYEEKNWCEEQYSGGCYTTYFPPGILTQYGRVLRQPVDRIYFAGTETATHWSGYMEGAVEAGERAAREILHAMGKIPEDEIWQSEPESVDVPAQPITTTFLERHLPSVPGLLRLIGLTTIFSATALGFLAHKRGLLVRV
Briefly: Activity evaluation on recombinant human MAO-B (Amplex Red/HRP-coupled assay, 1 mM benzylamine substrate). The following applies: read-out: Inhibitory Activity (IC50, nM) MAO-B. An outline of the steps:
as §1

Experiment [3] has as its target T4, recombinant human DAO (diamine oxidase) (Homo sapiens, UniProt P19801).
T4 construct: purchased R&D systems
T4 sequence (P19801 20-751): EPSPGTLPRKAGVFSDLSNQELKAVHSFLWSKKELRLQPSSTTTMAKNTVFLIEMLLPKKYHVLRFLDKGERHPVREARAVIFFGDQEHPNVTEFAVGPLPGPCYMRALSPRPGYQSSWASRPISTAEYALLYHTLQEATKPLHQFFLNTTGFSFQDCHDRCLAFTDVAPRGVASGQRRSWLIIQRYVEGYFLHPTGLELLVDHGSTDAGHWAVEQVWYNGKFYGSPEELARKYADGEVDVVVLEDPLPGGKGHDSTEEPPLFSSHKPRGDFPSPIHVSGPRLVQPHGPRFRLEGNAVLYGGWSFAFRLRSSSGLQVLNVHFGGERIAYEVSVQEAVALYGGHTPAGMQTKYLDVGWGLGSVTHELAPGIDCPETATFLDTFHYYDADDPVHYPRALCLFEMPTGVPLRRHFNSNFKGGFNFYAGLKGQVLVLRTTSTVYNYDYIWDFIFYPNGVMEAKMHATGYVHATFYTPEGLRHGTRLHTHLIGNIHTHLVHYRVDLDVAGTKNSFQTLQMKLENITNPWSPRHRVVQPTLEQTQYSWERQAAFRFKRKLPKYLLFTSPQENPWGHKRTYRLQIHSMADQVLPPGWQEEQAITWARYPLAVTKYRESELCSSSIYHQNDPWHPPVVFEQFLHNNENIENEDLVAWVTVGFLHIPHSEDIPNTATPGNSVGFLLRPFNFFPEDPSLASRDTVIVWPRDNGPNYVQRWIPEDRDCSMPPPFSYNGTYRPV
Kind of experiment: Activity evaluation on recombinant human DAO (Amplex Red/HRP-coupled assay, 1 mM putrescine substrate). The settings on record: read-out: Inhibitory Activity (IC50, nM) DAO. An outline of the steps: as §1

Setting [4] is: recombinant human VAP-1, 30 min preincubation at 37° C., 1 mM benzylamine.

A word on the IC50: it is the concentration that inhibits the measured activity by half. As to `CS(=O)(=O)c1ccc(-c2cc(-n3cnn(CC(CN)=C(F)F)c3=O)ccn2)cc1` [Example 61, 2-[2-(aminomethyl)-3,3-difluoro-allyl]-4-[2-(4-methylsulfonylphenyl)-4-pyridyl]-1,2,4-triazol-3-one Trifluoroacetate], the half-maximal inhibitory concentration (IC50) at recombinant human VAP-1 (setting [4]) is 0.7 nM; in experiment [1] (0.5 mM tyramine), above 100000 nM; in experiment [2] (1 mM benzylamine), 14000 nM; in experiment [3] (1 mM putrescine), 19 nM.
On the same counts, the results for `NCC(Cn1ncn(-c2cc(-c3ccc(N4CCNCC4)cc3)ccn2)c1=O)=C(F)F` [Example 55, 2-[2-(aminomethyl)-3,3-difluoro-allyl]-4-[4-(4-piperazin-1-ylphenyl)-2-pyridyl]-1,2,4-triazol-3-one Ditrifluoroacetate] are 6.6 nM, above 100000 nM, above 100000 nM and 620 nM.
For `Cc1cc(-n2cnn(CC(CN)=C(F)F)c2=O)cnc1Br` [Example 13, 2-[2-(aminomethyl)-3,3-difluoro-allyl]-4-(6-bromo-5-methyl-3-pyridyl)-1,2,4-triazol-3-one Trifluoroacetate] the same measures were 3.6 nM, above 100000 nM, 3600 nM and 910 nM.
On to `NCC(Cn1ncn(-c2cccc(-c3ccc(N4CCNCC4)cc3)c2)c1=O)=C(F)F` [Example 18, 2-[2-(aminomethyl)-3,3-difluoro-allyl]-4-[3-(4-piperazin-1-ylphenyl)phenyl]-1,2,4-triazol-3-one Ditrifluoroacetate], for which the 50% inhibitory concentration (IC50) is 15 nM on recombinant human VAP-1 (setting [4]), above 100000 nM in experiment [1] (0.5 mM tyramine), above 100000 nM in experiment [2] (1 mM benzylamine) and 13000 nM in experiment [3] (1 mM putrescine).
On to `CC(=O)c1ccc(-c2ccc(Cn3cnn(CC(CN)=C(F)F)c3=O)s2)cc1` [Example 100, 4-[[5-(4-acetylphenyl)-2-thienyl]methyl]-2-[2-(aminomethyl)-3,3-difluoro-allyl]-1,2,4-triazol-3-one trifluoroacetate], for which the IC50 on recombinant human VAP-1 (setting [4]) was 0.5 nM; in experiment [1] (0.5 mM tyramine) it was above 100000 nM; in experiment [2] (1 mM benzylamine), 11000 nM; in experiment [3] (1 mM putrescine) it was above 10000 nM.
Turning to `NCC(Cn1ncn(-c2ccc(F)c(F)c2)c1=O)=C(F)F` [Example 3, 2-[2-(aminomethyl)-3,3-difluoro-allyl]-4-(3,4-difluorophenyl)-1,2,4-triazol-3-one Trifluoroacetate], the half-inhibitory concentration (IC50) was 4 nM on recombinant human VAP-1 (setting [4]), above 100000 nM in experiment [1] (0.5 mM tyramine), 25000 nM in experiment [2] (1 mM benzylamine) and 19000 nM in experiment [3] (1 mM putrescine).
Consider `CCn1cc(-c2ccccc2Cn2cnn(CC(CN)=C(F)F)c2=O)cn1` [Example 278, 2-[2-(aminomethyl)-3,3-difluoro-allyl]-4-[[2-(1-ethylpyrazol-4-yl)phenyl]methyl]-1,2,4-triazol-3-one trifluoroacetate], for which the half-maximal inhibitory concentration (IC50) on recombinant human VAP-1 (recombinant human VAP-1, benzylamine substrate) is 17 nM; in experiment [1] (0.5 mM tyramine substrate), above 100000 nM; in experiment [2] (1 mM benzylamine substrate), above 100000 nM; in experiment [3] (1 mM putrescine substrate), above 100000 nM.
With `CS(=O)(=O)c1ccc(-c2cccc(-n3cnn(CC(CN)=C(F)F)c3=O)c2)cc1` [Example 17, 2-[2-(aminomethyl)-3,3-difluoro-allyl]-4-[3-(4-methylsulfonylphenyl)phenyl]-1,2,4-triazol-3-one Trifluoroacetate], the IC50 on recombinant human VAP-1 (setting [4]) is 12 nM; in experiment [1] (0.5 mM tyramine) it was above 100000 nM; in experiment [2] (1 mM benzylamine) it was above 10000 nM; in experiment [3] (1 mM putrescine), 1300 nM.
For `CN1C(=O)CCc2cc(-c3ccc(-n4cnn(CC(CN)=C(F)F)c4=O)cn3)ccc21` [Example 44, 6-[5-[1-[2-(aminomethyl)-3,3-difluoro-allyl]-5-oxo-1,2,4-triazol-4-yl]-2-pyridyl]-1-methyl-3,4-dihydroquinolin-2-one Trifluoroacetate] the same measures were 0.3 nM, above 100000 nM, 110 nM and 14 nM.
`CN(C)c1ccc(-c2csc(Cn3cnn(CC(CN)=C(F)F)c3=O)c2)cn1` [Example 149, 2-[2-(aminomethyl)-3,3-difluoro-allyl]-4-[[4-[6-(dimethylamino)-3-pyridyl]-2-thienyl]methyl]-1,2,4-triazol-3-one Trifluoroacetate]: the half-maximal inhibitory concentration (IC50) was 0.6 nM at recombinant human VAP-1 (setting [4]), above 100000 nM in experiment [1] (0.5 mM tyramine), above 100000 nM in experiment [2] (1 mM benzylamine) and above 10000 nM in experiment [3] (1 mM putrescine).
On to `NCC(Cn1ncn(-c2cnc(-c3ccc4c(c3)OCO4)cn2)c1=O)=C(F)F` [Example 93, 2-[2-(aminomethyl)-3,3-difluoro-allyl]-4-[5-(1,3-benzodioxol-5-yl)pyrazin-2-yl]-1,2,4-triazol-3-one Trifluoroacetate], for which the half-inhibitory concentration (IC50) was 0.3 nM on recombinant human VAP-1 (setting [4]), above 100000 nM in experiment [1] (0.5 mM tyramine), 50 nM in experiment [2] (1 mM benzylamine) and 21 nM in experiment [3] (1 mM putrescine).
On to `Cc1c(-c2ccc(Cn3cnn(CC(CN)=C(F)F)c3=O)s2)ccc2c1NCCO2` [Example 139, 2-[2-(aminomethyl)-3,3-difluoro-allyl]-4-[[5-(5-methyl-3,4-dihydro-2H-1,4-benzoxazin-6-yl)-2-thienyl]methyl]-1,2,4-triazol-3-one Trifluoroacetate], for which the half-maximal inhibitory concentration (IC50) on recombinant human VAP-1 (setting [4]) stood at 1 nM; in experiment [1] (0.5 mM tyramine), 21000 nM; in experiment [2] (1 mM benzylamine), 21000 nM; in experiment [3] (1 mM putrescine), 73000 nM.
